Laboratory results from US12491229B2, “Stabilized peptide composition” (Shionogi & Co., Ltd., priority 2014, dated 2025).
One block for each sequence: values may come before it. Ends that are not written are not given here.

Legend:
Type in all cases: physicochemical
[1] = Solubility study 1 of each peptide against solution pH; conditions: pH 2-12, peptide mixed at 3 mg/mL in water for injection adjusted with hydrochloride or sodium hydroxide solution; FIG. 1
Protocol: Solubility of the peptides described as SEQ ID NOs: 1-5 was evaluated with the condition of pH 2-12. Hydrochloride solution or sodium hydroxide solution was added to water for injection to adjust pH, and each peptide was mixed with the adjusted solution, where the peptide concentration was set to 3 mg/mL. The mixed solution was filtered, the filtered solution was diluted with 10-20 parts of water for injection, and peak area of each peptide was obtained by liquid chromatography (same test procedure described above). From peak area of each peptide, dilution ratio of the filtered solution, peak area and concentration of each standard solution described above, peptide concentration was obtained.

[2] = Solubility study 2 of each peptide against pH (white turbidity on decreasing pH); set-up: key: ∘: dissolution; x: white turbidity; conditions: peptide 1.5 mg/g, pH decreased gradually with hydrochloride solution
Protocol: As shown in the study 1 described above, when the peptide was mixed directly with water for injection, the bulk was formed, and it was difficult to dissolve the bulk. So, solubility of peptides was evaluated thermodynamically by dissolving the peptide completely once with high pH, and decreasing the solution pH gradually to check pH when white turbidity was observed.
The peptide described as SEQ ID NO: 1 or SEQ ID NO: 2 was dissolved into the solution with pH10 and solubility was examined by decreasing the solution pH in each. 15 mg of the peptide described as SEQ ID NO: 1 or SEQ ID NO: 2 was mixed with water, 0.1 mol/L sodium hydroxide solution was added for dissolution, and pH was adjusted to 10. Peptide concentration was adjusted to 1.5 mg/g. In each sample solution, hydrochloride solution was added to decrease pH gradually, and the appearance of the solution was checked.

[3] = Solution stability of each peptide against pH; conditions: for stability in the solution state: conclusion from studies on stability in solution with different pH
Protocol: Content and related substances were measured in accordance with the method of liquid chromatography described in general test section in Japan Pharmacopeia. To prepare the test sample, water for injection was added to the lyophilized sample, and each peptide concentration was adjusted to 0.12 mg/mL. Peak area of each peptide in the sample and the one in each standard of the drug substance were obtained, and content was calculated from dilution ratio and ratio of peak area in the sample to one in each standard described below. Residual of the content in the stability test was against the content at the time when the lyophilized sample was prepared. Related substances were calculated by ratio of peak area of the target related substance to all related substances and drug substances in each sample solution. The level of increase of the related substances was evaluated by the difference from the related substance at the moment when the lyophilized sample was prepared.
Standard solution for measuring content of the peptide described as SEQ ID NO: 1 or SEQ ID NO: 2 was prepared in each by dissolving the peptide described above into 1.6 mg/mL phosphate solution and by adjusting each peptide concentration into 0.15 mg/mL. Standard solution for measuring content of the peptide described as SEQ ID NO: 3, SEQ ID NO: 4 or SEQ ID NO: 5 was prepared in each by dissolving the peptide described above into 12.1 mg/mL of 2-amnino-2-hydroxymethyl-1,3-propanediol aqueous solution and by adjusting each peptide concentration to 0.15 mg/mL. For the stationary phase of the liquid chromatography, column with octadecyl group was used, and the measurement was performed by gradient elution method. Flow rate in the measurement was set to 1.0 mL/min.
Stability of the peptide described as SEQ ID NOs: 1-5 was evaluated in each.
The sample solution prepared with the compositions above was stored for 6 hours at 25° C. Then, the level of increase of related substances derived from the peptides described as SEQ ID NO: 1, SEQ ID NO: 2 or SEQ ID NO: 3 was measured in each, and residual of the peptides described as SEQ ID NO: 4 or SEQ ID NO: 5 was measured in each. The analytical procedure for the related substances and peptide contents was described above.

Sequence: KTVNELQNL (listed as Homo sapiens) [SEQ ID NO: 5, peptide derived from KOC1 protein]
stability in the solution state [3]: poor stability
residual of the peptide ([3]; five-peptide solution (Table 2) pH 8-11 stored for 6 hours at 25° C., FIGS. 2-4, 2-5): prominently decreased and solution stability decreased with increasing solution pH

Sequence: RYCNLEGPPI (listed as Homo sapiens) [SEQ ID NO: 3, peptide derived from URLC10 protein]
stability in the solution state [3]: poor stability
level of increase of related substances derived from the peptide ([3]; five-peptide solution (Table 2) pH 8-11 stored for 6 hours at 25° C., FIGS. 2-1 to 2-3): increased and solution stability decreased, when solution pH was 10.0-11.0

Now from value to sequence, other results behind:

Solution state ([2]; pH 5.4): x
Solution state ([2]; pH 5.6): ∘
Solution state ([2]; pH 6): ∘
Solution state ([2]; pH 6.6): ∘
Solution state ([2]; pH 7.9): ∘
Solution state ([2]; pH 10): ∘
stability in the solution state [3]: good stability
Sequence: EYYELFVNI [SEQ ID NO: 1, EYYELFVNI]
Solubility of each peptide against pH [1]: decreased with decreasing pH of the solution

Solution state ([2]; pH 5): x
Solution state ([2]; pH 5.5): ∘
Solution state ([2]; pH 7): ∘
Solution state ([2]; pH 8): ∘
Solution state ([2]; pH 9): ∘
Solution state ([2]; pH 10): ∘
stability in the solution state [3]: poor stability
Sequence: IYNEYIYDL [SEQ ID NO: 2, IYNEYIYDL]
Solubility of each peptide against pH [1]: decreased with decreasing pH of the solution

Solubility of each peptide against pH [1]: low when solution pH was around neutral
stability in the solution state [3]: good stability
Sequence: VYGIRLEHF [SEQ ID NO: 4, VYGIRLEHF]
